Three compounds from the NIST ThermoML archive (doi:10.1021/acs.jced.9b00561) can be followed below.

± gives the expanded uncertainty stated by the source.

Broadly, the refractive index is a measure of how strongly the sample bends light.

This data set is described as follows: refractive index (Na D-line) (dimensionless); wn = mass fraction of the nth substance listed. The settings on record: 323.15 K, 101.3 kPa, Liquid, Standard Abbe refractometry.

On to `[Cl-].[Na+]` [sodium chloride] + O, for which the refractive index (w1 = 0.2683) stood at 1.3765 ± 0.0019.

In the case of `[Cl-].[Li+]` [lithium chloride] + O, under “w1 = 0.4841”, the refractive index was 1.439 ± 0.0018.

For `O=BOB([O-])OB([O-])OB=O.[Na+].[Na+]` [sodium tetraborate] + O, the refractive index (w1 = 0.0953) was 1.3477 ± 0.0004.
